The subject of data set [1] is Rattus norvegicus. The data set can be described thus: Suppression of prostate tissue weight in Sprague-Dawley rat model of testosterone propionate-induced benign prostatic hyperplasia at 10 mg/kg, po relative to control. The data set is classed as functional.
Data set [2] has as its system Rattus norvegicus. Nature of the data set: Suppression of serum DHT level in Sprague-Dawley rat model of testosterone propionate-induced benign prostatic hyperplasia at 10 mg/kg, po by ELISA. Format: functional, organism-based. (In an ELISA, binding on a coated surface is turned into a signal by an enzyme label.)
In data set [3] the test system is Rattus norvegicus. The data set can be described thus: Suppression of 5-alpha reductase2 mRNA expression in Sprague-Dawley rat model of testosterone propionate-induced benign prostatic hyperplasia at 10 mg/kg, po by qRT-PCR method. The data set is classed as functional, organism-based. On the technique in general: Real-time PCR tracks product formation cycle by cycle.

The subject of data set [4] is Rattus norvegicus. Nature of the data set: Downregulation of prostate Bcl2 expression in Sprague-Dawley rat model of testosterone propionate-induced benign prostatic hyperplasia at 10 mg/kg, po by Western blot analysis. The data set is classed as functional, organism-based.
In data set [5] the test system is Rattus norvegicus. The data set can be described thus: Downregulation of prostate Bcl-xL expression in Sprague-Dawley rat model of testosterone propionate-induced benign prostatic hyperplasia at 10 mg/kg, po by Western blot analysis. Format: functional, organism-based. On the technique in general: A western blot detects proteins with antibodies after separation by electrophoresis.

For data set [6], the system named is Rattus norvegicus. Nature of the data set: Induction of PARP1 cleavage in prostate tissue of Sprague-Dawley rat model of testosterone propionate-induced benign prostatic hyperplasia at 10 mg/kg, po by Western blot analysis. Format: functional, organism-based.
Data set [7] deals with Rattus norvegicus. The data set can be described thus: Suppression of prostate tissue weight in Sprague-Dawley rat model of testosterone propionate-induced benign prostatic hyperplasia at 1 mg/kg, ip relative to control. Format: functional.
Data set [8] relates to Rattus norvegicus. Nature of the data set: Suppression of prostate tissue weight in Sprague-Dawley rat model of testosterone propionate-induced benign prostatic hyperplasia at 10 mg/kg, ip relative to control. Format: functional.
Data set [9] in a line: Toxicity in Sprague-Dawley rat model of testosterone propionate-induced benign prostatic hyperplasia assessed as effect on body weight at 1 to 10 mg/kg, ip. The data set is classed as organism-based. The following applies: in vivo.
Data set [10] in a line: Toxicity in Sprague-Dawley rat model of testosterone propionate-induced benign prostatic hyperplasia assessed as behavioural changes at 1 to 10 mg/kg, ip. The data set is classed as organism-based. The following applies: in vivo.
The nature of data set [11]: Toxicity in Sprague-Dawley rat model of testosterone propionate-induced benign prostatic hyperplasia assessed as effect on animal health at 1 to 10 mg/kg, ip. Format: organism-based. The following applies: in vivo.
The test system of data set [12] is Rattus norvegicus. Nature of the data set: Suppression of serum DHT level in Sprague-Dawley rat model of testosterone propionate-induced benign prostatic hyperplasia at 1 to 10 mg/kg, ip by ELISA. The data set is classed as functional, organism-based.
The subject of data set [13] is Rattus norvegicus. Nature of the data set: Suppression of 5-alpha reductase2 mRNA expression in Sprague-Dawley rat model of testosterone propionate-induced benign prostatic hyperplasia at 1 to 10 mg/kg, ip by qRT-PCR method. The data set is classed as functional, organism-based.
For data set [14], the system named is Rattus norvegicus. The data set can be described thus: Suppression of prostate epithelial thickness in Sprague-Dawley rat model of testosterone propionate-induced benign prostatic hyperplasia at 1 mg/kg, ip by hematoxylin and eosin staining-based microscopic analysis relative to control. Format: functional.
The subject of data set [15] is Rattus norvegicus. Nature of the data set: Suppression of prostate epithelial thickness in Sprague-Dawley rat model of testosterone propionate-induced benign prostatic hyperplasia at 10 mg/kg, ip by hematoxylin and eosin staining-based microscopic analysis relative to control. The data set is classed as functional.
In data set [16] the test system is Rattus norvegicus. The data set can be described thus: Downregulation of prostate Bcl2 expression in Sprague-Dawley rat model of testosterone propionate-induced benign prostatic hyperplasia at 1 to 10 mg/kg, ip by Western blot analysis. The data set is classed as functional, organism-based.
In data set [17] the test system is Rattus norvegicus. Nature of the data set: Downregulation of prostate Bcl-xL expression in Sprague-Dawley rat model of testosterone propionate-induced benign prostatic hyperplasia at 1 to 10 mg/kg, ip by Western blot analysis. The data set is classed as functional, organism-based.
Data set [18] concerns Rattus norvegicus. The data set can be described thus: Induction of PARP1 cleavage in prostate tissue of Sprague-Dawley rat model of testosterone propionate-induced benign prostatic hyperplasia at 10 mg/kg, ip by Western blot analysis. The data set is classed as functional, organism-based.
Data set [19] concerns Rattus norvegicus. Nature of the data set: Downregulation of Cdk4 expression in prostate tissue of Sprague-Dawley rat model of testosterone propionate-induced benign prostatic hyperplasia at 1 to 10 mg/kg, ip by Western blot analysis. Format: functional, organism-based.
In data set [20] the test system is Rattus norvegicus. The data set can be described thus: Downregulation of Cyclin D1 expression in prostate tissue of Sprague-Dawley rat model of testosterone propionate-induced benign prostatic hyperplasia at 1 to 10 mg/kg, ip by Western blot analysis. The data set is classed as functional, organism-based.
Data set [21] has as its system Rattus norvegicus. Nature of the data set: Downregulation of Cdk2 expression in prostate tissue of Sprague-Dawley rat model of testosterone propionate-induced benign prostatic hyperplasia at 1 to 10 mg/kg, ip by Western blot analysis. The data set is classed as functional, organism-based.
In data set [22] the test system is Rattus norvegicus. Nature of the data set: Downregulation of Cyclin E expression in prostate tissue of Sprague-Dawley rat model of testosterone propionate-induced benign prostatic hyperplasia at 1 to 10 mg/kg, ip by Western blot analysis. Format: functional, organism-based.
Data set [23] has as its system Rattus norvegicus. Nature of the data set: Downregulation of PCNA expression in prostate tissue of Sprague-Dawley rat model of testosterone propionate-induced benign prostatic hyperplasia at 1 to 10 mg/kg, ip by Western blot analysis. Format: functional, organism-based.
For data set [24], the system named is Rattus norvegicus. Nature of the data set: Downregulation of PCNA mRNA expression in prostate tissue of Sprague-Dawley rat model of testosterone propionate-induced benign prostatic hyperplasia at 1 mg/kg, ip by qRT-PCR method. Format: functional.
Data set [25] concerns Rattus norvegicus. Nature of the data set: Downregulation of PCNA mRNA expression in prostate tissue of Sprague-Dawley rat model of testosterone propionate-induced benign prostatic hyperplasia at 10 mg/kg, ip by qRT-PCR method. The data set is classed as functional.
Data set [26] relates to Rattus norvegicus. Nature of the data set: Downregulation of PCNA […] expression in prostate tissue of Sprague-Dawley rat model of testosterone propionate-induced benign prostatic hyperplasia at 1 to 10 mg/kg, ip by immunohistochemical analysis. The data set is classed as functional, organism-based.
The test system of data set [27] is BPH-1. Nature of the data set: Cytotoxicity against human BPH1 cells at 62.5 to 1000 uM by MTT assay. The data set is classed as functional, cell-based.
The subject of data set [28] is BPH-1. The data set can be described thus: Downregulation of PCNA expression in human BPH1 cells at 125 to 500 uM after 24 hrs by immunoblot analysis. The data set is classed as functional, cell-based.
Data set [29] has as its target Proliferating cell nuclear antigen (Homo sapiens) (UniProt P12004). Nature of the data set: Inhibition of PCNA-mediated cell cycle progression in human BPH-1 cells assessed as reduction in cdk4 level at 125 to 500 uM after 24 hrs by immunoblot analysis. Format: cell-based.
Data set [30] shares this target. Nature of the data set: Inhibition of PCNA-mediated cell cycle progression in human BPH-1 cells assessed as reduction in cyclin D level at 250 to 500 uM after 24 hrs by immunoblot analysis. Format: cell-based.

Active and inactive are the calls of the source. The calls are words filed in the database; no cut-off is given here.

One may read the inhibition in vivo as the relative decrease from the control value, in per cent. Low readings indicate a weak effect, high ones a strong effect.

Chain of Proliferating cell nuclear antigen (Homo sapiens) (P12004 whole entry): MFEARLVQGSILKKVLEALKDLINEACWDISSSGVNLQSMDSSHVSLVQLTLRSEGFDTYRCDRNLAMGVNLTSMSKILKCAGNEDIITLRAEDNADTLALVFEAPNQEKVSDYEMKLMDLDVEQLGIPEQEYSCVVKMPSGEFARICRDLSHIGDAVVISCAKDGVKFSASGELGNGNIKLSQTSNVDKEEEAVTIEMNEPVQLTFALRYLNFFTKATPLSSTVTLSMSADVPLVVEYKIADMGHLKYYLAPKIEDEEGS

As to `CC(C)(C)NC(=O)[C@H]1CC[C@H]2[C@@H]3CC[C@H]4NC(=O)C=C[C@]4(C)[C@H]3CC[C@]12C` [FINASTERIDE], the inhibition in vivo at 10 mg/kg in the data set with Rattus norvegicus [1] stood at 32.5%. Also, the outcome with Rattus norvegicus [2], with Rattus norvegicus [4], in the data set with Rattus norvegicus [5] and in the data set with Rattus norvegicus [6] was Active. For the same compound, in the data set with Rattus norvegicus [3], the inhibition result is “Active”.

On to `CC1(C)CC[C@]2(C(=O)O)CC[C@]3(C)C(=CC[C@@H]4[C@@]5(C)CC[C@H](O)C(C)(C)[C@@H]5CC[C@]43C)[C@@H]2C1` [OLEANOLIC_ACID], for which the inhibition in vivo at 1 mg/kg in the data set with Rattus norvegicus [7] amounted to 30.9%; in the data set with Rattus norvegicus [14] it was 48%. The inhibition in vivo at 10 mg/kg with Rattus norvegicus [8] worked out at 31.2%; in the data set on Rattus norvegicus [15] it was 54.8%. For the same compound, the Activity entry in [9] is given as “Non-Toxic”; in data set [10], “Non-Toxic”; in [11] it was “Non-Toxic”; with Rattus norvegicus [24] it was 54.89%; in the data set with Rattus norvegicus [25], 71.16%. Moreover, the inhibition result (with Rattus norvegicus [12]; in the data set with Rattus norvegicus [13]; in data set [29]; in data set [30]) was “Active” throughout. Besides, the result in the data set on Rattus norvegicus [16], with Rattus norvegicus [17], with Rattus norvegicus [18], with Rattus norvegicus [19], with Rattus norvegicus [20] and with Rattus norvegicus [21] was Active. In addition, the outcome in the data set with Rattus norvegicus [22], in the data set on Rattus norvegicus [23], with Rattus norvegicus [26], in the data set with BPH-1 [27] and in the data set on BPH-1 [28] was Active.

Source of the values: ChEMBL document CHEMBL4610090, “Oleanolic Acid Ameliorates Benign Prostatic Hyperplasia by Regulating PCNA-Dependent Cell Cycle Progression In Vivo and In Vitro” (J Nat Prod, 2020).
